# In patent publication US8492588B2, “Benzyloxy anilide derivatives useful as potassium channel modulators” (Valeant Pharmaceuticals International, priority 2008, dated 2013):
# Molecular target: T1, KCNQ2/3 heteromultimers (Rattus norvegicus, UniProt O88943+O88944)
# T1 construct: endogenous in cells; host or cells: PC-12 cells differentiated with NGF-7s; no transfection is described
# Assay: Rubidium (Rb+) efflux test in PC-12 cells
# Assay type: cell-based
# Settings: NGF-differentiated PC-12 cells, depolarization buffer 15 mM KCl, 10 min
# Protocol: Compounds of this invention formula were evaluated for activity toward potassium channels in a cell-based Rb^+ efflux assay. This cellular bioassay is believed to faithfully represent the M current channel activities identified with KCNQ2/3 heteromultimers. […] Additionally, antiseizure activity in vivo was evaluated in a mouse maximal electroshock seizure (MES) model, and neurotoxicities were determined from a rotorod neurocognitive motor impairment model.
# PC-12 cells were grown at 37° C. and 5% CO2 in DMEM/F12 Medium (Dulbecco's Modified Eagle Medium with Nutrient Mix F-12, available from Invitrogen of Carlsbad, Calif.), supplemented with 10% horse serum, 5% fetal bovine serum, 2 mM glutamine, 100 U/ml penicillin, and […] streptomycin. They were plated in poly-D-lysine-coated 96-well cell culture microplates at a density of 40,000 cells/well and differentiated with 100 ng/ml NGF-7s for 2-5 days. For the assay, the medium was aspirated, and the cells were washed once with 0.2 ml in wash buffer (25 mM HEPES, pH 7.4, 150 mM NaCl, 1 mM MgCl2; 0.8 mM NaH2PO4, 2 mM CaCl2). The cells were then loaded with 0.2 ml Rh^+ loading buffer (wash buffer plus 5.4 mM […], 5 mM glucose) and incubated at 37° C. for 2 h. Attached cells were quickly washed three times with buffer (same as Rb^+ loading buffer, but containing 5.4 mM KCl instead of RbCl) to remove extracellular Rb^+. Immediately following the wash, 0.2 ml of depolarization buffer (wash buffer plus 15 mM KCl) with or without compounds was added to the cells to activate efflux of potassium ion channels. After incubation for 10 min at room temperature, the supernatant was carefully removed and collected. Cells were lysed by the addition of 0.2 ml of lysis buffer (depolarization buffer plus 0.1% Triton X-100) and the cell lysates were also collected. If collected samples were not immediately analyzed for Rb^+ contents by atomic absorption spectroscopy (see below), they were stored at 4° C. without any negative effects on subsequent Rb^+ analysis.
# The concentrations of Rb^+ in the supernatants (Rb^+Sup) and the cell lysates (Rb^+Lys) were quantified using an ICR8000 flame atomic absorption spectrometer (Aurora Biomed Inc., Vancouver, B.C.) under conditions defined by the manufacturer. Samples 0.05 ml in volume were processed automatically from microtiter plates by dilution with an equal volume of Rb^+ sample analysis buffer and injection into an air-acetylene flame. The amount of Rb^+ in the sample was measured by absorption at 780 nm using a hollow cathode lamp as light source and a PMT detector. A calibration curve covering the range 0-5 mg/L Rb^+ in sample analysis buffer was generated with each set of plates. The percent Rb^+ efflux (F) was defined by F=[Rb^+Sup/(Rb^+Sup+Rb^+Lys)]×100%. wherein the Fc is the efflux in the presence of compound in depolarization buffer, Fb is the efflux in basal buffer, and Fs is the efflux in depolarization buffer, […]. The efflux (F) and compound concentration relationship was plotted to calculate an EC50 value, a compound's concentration for 50% of maximal RV efflux. Maximal Electroshock Seizure (MES) and Acute Toxicity Tests MES Test
row,EC50 [µM],SMILES
1,0.001 to 0.01,Cc1cc(OCc2ccc(F)cc2)cc(C)c1NC(=O)CCC1CCCC1
2,0.01 to 0.05,Cc1cc(OCc2ccc(Br)cc2)cc(C)c1NC(=O)CC(C)(C)C
3,0.01 to 0.05,Cc1cc(OCc2ccc(C(F)(F)F)cc2)cc(C)c1NC(=O)CC(C)(C)C
4,0.01 to 0.05,Cc1cc(OCc2cccc(C(F)(F)F)c2)cc(C)c1NC(=O)CC(C)(C)C
5,0.01 to 0.05,Cc1cc(OCc2ccc(F)cc2F)cc(C)c1NC(=O)CC(C)(C)C
6,0.05 to 0.5,CCOC(=O)Nc1ccc(OCc2ccc(F)cc2)cc1C
7,0.01 to 0.05,Cc1cc(OCc2ccc(F)c(F)c2)cc(C)c1NC(=O)CC(C)(C)C
8,0.01 to 0.05,Cc1cc(OCc2cccc(F)c2)cc(C)c1NC(=O)CC(C)(C)C
9,0.01 to 0.05,Cc1cc(OCc2ccc(Cl)cc2)cc(C)c1NC(=O)CC(C)(C)C
10,0.05 to 0.5,CCOC(=O)Nc1ccc(OCc2ccc(F)cc2)cc1
11,0.05 to 0.5,CCOC(=O)Nc1ccc(OCc2ccc(F)cc2)cc1C(F)(F)F
12,0.01 to 0.05,Cc1cc(OCc2cccc(Cl)c2)cc(C)c1NC(=O)CC(C)(C)C
13,0.001 to 0.01,Cc1cc(OCc2ccc(F)c(F)c2)cc(C)c1NC(=O)CCC1CCCC1
14,0.01 to 0.05,Cc1ccc(COc2cc(C)c(NC(=O)CC(C)(C)C)c(C)c2)cc1
15,0.01 to 0.05,Cc1cc(OCc2ccc(F)cc2)cc(C)c1NC(=O)CC(C)(C)C
16,0.05 to 0.5,Cc1cc(OCc2ccccc2C(F)(F)F)cc(C)c1NC(=O)CC(C)(C)C
17,0.05 to 0.5,CCOC(=O)Nc1ccc(OCc2ccc(F)cc2)cc1F
